Data on ten compounds can be found in ChEMBL document CHEMBL1129214, “Synthesis and structure-activity relationship of C-3 quaternary ammonium cephalosporins exhibiting anti-MRSA activities” (1997).

The structures appear in SMILES notation. Converted amounts (≈) assume the structure as drawn.

Type in all cases: functional
Experiment [1] relates to Staphylococcus aureus. The experiment is described as follows: In vitro activity against MRSA (A27217; heterogeneous strain) by standard broth dilution method. In general terms: In broth dilution the organism is exposed to a series of concentrations in liquid medium.
The test system of experiment [2] is Staphylococcus aureus. The experiment in a line: In vitro activity against MSSA (A20241) by standard broth dilution method.
For experiment [3], the system named is Staphylococcus aureus. The experiment is described as follows: In vitro activity against MSSA (A15090) by standard broth dilution method.
Experiment [4] deals with Staphylococcus aureus. The experiment is described as follows: In vitro activity against MRSA (A27226; homogeneous strain) by standard broth dilution method.
For experiment [5], the system named is Staphylococcus aureus. The experiment in a line: In vitro activity against MRSA (A27223; homogeneous strain) by standard broth dilution method.
Experiment [6] has as its system Staphylococcus aureus. The experiment is described as follows: In vitro activity against MRSA (A27621; homogeneous strain) by standard broth dilution method.
Experiment [7] can be described thus: In vivo inhibitory activity of compound against staphylococcus aureus; […]. The settings on record: read-out: PD50.
The nature of experiment [8]: In vivo inhibitory activity of compound against staphylococcus aureus. Particulars: read-out: PD50.
Where [9] appears, read: Staphylococcus aureus, read-out: MIC.

As to `O=C(CSc1cc(Cl)ccc1Cl)N[C@@H]1C(=O)N2C(C(=O)[O-])=C(C[N+]34CCC(CC3)C(O)C4)CS[C@H]12` (some centres not stated), the MIC was 1 µg/mL (≈ 1.79 µM) in experiment [1] (setting [9]); 0.25 µg/mL (≈ 0.448 µM) in experiment [2] (setting [9]); 0.25 µg/mL (≈ 0.448 µM) in experiment [3] (setting [9]); 1 µg/mL (≈ 1.79 µM) in experiment [4] (setting [9]); 1 µg/mL (≈ 1.79 µM) in experiment [5] (setting [9]); 1 µg/mL (≈ 1.79 µM) in experiment [6] (setting [9]).
Consider `O=C(CSc1cc(Cl)ccc1Cl)N[C@@H]1C(=O)N2C(C(=O)[O-])=C(C[N+]34CN5CN(CN(C5)C3)C4)CS[C@H]12`, for which the MIC in experiment [1] (setting [9]) was 4 µg/mL (≈ 7 µM); in experiment [2] (setting [9]), 0.125 µg/mL (≈ 0.219 µM); in experiment [3] (setting [9]), 0.125 µg/mL (≈ 0.219 µM); in experiment [4] (setting [9]) it was 8 µg/mL (≈ 14 µM); in experiment [5] (setting [9]) it was 8 µg/mL (≈ 14 µM); in experiment [6] (setting [9]), 8 µg/mL (≈ 14 µM).
With `O=C(CSc1cc(Cl)ccc1Cl)N[C@@H]1C(=O)N2C(C(=O)[O-])=C(C[n+]3ccc4c(O)cccc4c3)CS[C@H]12`, the MIC in experiment [1] (setting [9]), in experiment [2] (setting [9]), in experiment [3] (setting [9]), in experiment [4] (setting [9]), in experiment [5] (setting [9]) and in experiment [6] (setting [9]) was 1 µg/mL (≈ 1.73 µM) throughout.
For the compound `O=C(CSc1cc(Cl)ccc1Cl)N[C@@H]1C(=O)N2C(C(=O)[O-])=C(C[n+]3ccc4ccccc4c3)CS[C@H]12`, the MIC in experiment [1] (setting [9]) was 2 µg/mL (≈ 3.57 µM); in experiment [2] (setting [9]) it was 0.5 µg/mL (≈ 0.892 µM); in experiment [3] (setting [9]), 0.5 µg/mL (≈ 0.892 µM); in experiment [4] (setting [9]) it was 2 µg/mL (≈ 3.57 µM); in experiment [5] (setting [9]), 2 µg/mL (≈ 3.57 µM); in experiment [6] (setting [9]), 2 µg/mL (≈ 3.57 µM).
As to `C[N+]1(CC2=C(C(=O)[O-])N3C(=O)[C@@H](NC(=O)CSc4cc(Cl)ccc4Cl)[C@H]3SC2)C2CCCC1CC2` (some centres not stated), the MIC in experiment [1] (setting [9]) was determined as 2 µg/mL (≈ 3.59 µM); in experiment [2] (setting [9]), 0.25 µg/mL (≈ 0.449 µM); in experiment [3] (setting [9]), 0.25 µg/mL (≈ 0.449 µM); in experiment [4] (setting [9]), 2 µg/mL (≈ 3.59 µM); in experiment [5] (setting [9]), 2 µg/mL (≈ 3.59 µM); in experiment [6] (setting [9]), 2 µg/mL (≈ 3.59 µM).
`O=C(CSc1cc(Cl)ccc1Cl)N[C@@H]1C(=O)N2C(C(=O)[O-])=C(C[n+]3ccc4c(c3)CCCC4)CS[C@H]12`: the minimum inhibitory concentration (MIC) in experiment [1] (setting [9]) was 2 µg/mL (≈ 3.54 µM); in experiment [2] (setting [9]), 0.5 µg/mL (≈ 0.886 µM); in experiment [3] (setting [9]), 0.5 µg/mL (≈ 0.886 µM); in experiment [4] (setting [9]) it was 2 µg/mL (≈ 3.54 µM); in experiment [5] (setting [9]), 4 µg/mL (≈ 7.09 µM); in experiment [6] (setting [9]), 4 µg/mL (≈ 7.09 µM).
As for `C[N+]1(CC2=C(C(=O)[O-])N3C(=O)[C@@H](NC(=O)CSc4cc(Cl)ccc4Cl)[C@H]3SC2)C2CCC1CC(=O)C2` (some centres not stated), the MIC was 2 µg/mL (≈ 3.51 µM) in experiment [1] (setting [9]); 0.5 µg/mL (≈ 0.876 µM) in experiment [2] (setting [9]); 0.5 µg/mL (≈ 0.876 µM) in experiment [3] (setting [9]); 4 µg/mL (≈ 7.01 µM) in experiment [4] (setting [9]); 4 µg/mL (≈ 7.01 µM) in experiment [5] (setting [9]); 4 µg/mL (≈ 7.01 µM) in experiment [6] (setting [9]).
Consider `NCCC(=O)NC1C[N+]2(CC3=C(C(=O)[O-])N4C(=O)[C@@H](NC(=O)CSc5cc(Cl)ccc5Cl)[C@H]4SC3)CCC1CC2` (some centres not stated), for which the MIC in experiment [1] (setting [9]) is 2 µg/mL (≈ 3.18 µM); in experiment [2] (setting [9]), 1 µg/mL (≈ 1.59 µM); in experiment [3] (setting [9]) it was 1 µg/mL (≈ 1.59 µM); in experiment [4] (setting [9]) it was 4 µg/mL (≈ 6.36 µM); in experiment [5] (setting [9]), 4 µg/mL (≈ 6.36 µM); in experiment [6] (setting [9]), 4 µg/mL (≈ 6.36 µM).
`C[N+]1(CC2=C(C(=O)[O-])N3C(=O)[C@@H](NC(=O)CSc4cc(Cl)ccc4Cl)[C@H]3SC2)[C@@H]2CC[C@H]1C[C@@H](O)C2` (stereo in doubt; 6r): the MIC was found to be 1 µg/mL (≈ 1.75 µM) in experiment [1] (setting [9]); 0.25 µg/mL (≈ 0.437 µM) in experiment [2] (setting [9]); 0.25 µg/mL (≈ 0.437 µM) in experiment [3] (setting [9]); 2 µg/mL (≈ 3.49 µM) in experiment [4] (setting [9]); 2 µg/mL (≈ 3.49 µM) in experiment [5] (setting [9]); 2 µg/mL (≈ 3.49 µM) in experiment [6] (setting [9]). Besides, in experiment [7], the ED50 came to 0.8 mg/kg.
`C[N+]1(CC2=C(C(=O)[O-])N3C(=O)[C@@H](NC(=O)CSc4cc(Cl)ccc4Cl)[C@H]3SC2)[C@@H]2CC[C@H]1C[C@@H](O)C2` (stereo in doubt; 6s): the MIC came out at 1 µg/mL (≈ 1.75 µM) in experiment [1]; 0.125 µg/mL (≈ 0.218 µM) in experiment [2]; 0.125 µg/mL (≈ 0.218 µM) in experiment [3]; 4 µg/mL (≈ 6.99 µM) in experiment [4]; 4 µg/mL (≈ 6.99 µM) in experiment [5]; 2 µg/mL (≈ 3.49 µM) in experiment [6]. In addition, the ED50 in experiment [8] was 9.5 mg/kg.

A word on the MIC: it is the lowest concentration that inhibits growth of the organism.
